We go through three molecules from paper PMC7703563 (Proceedings of the National Academy of Sciences of the …, 2020).

What is called Kd is the equilibrium constant for the complex coming apart. Broadly, the Km is the substrate concentration at which the rate is half of its maximum. A word on the kcat: it is the maximal rate divided by the concentration of active sites.

For series [1], the target named is T1, MANEA-Δ97 (human endo-α-1,2-mannosidase catalytic domain, GH99) (Homo sapiens, UniProt Q5SRI9).
T1 sequence (Q5SRI9 98-462): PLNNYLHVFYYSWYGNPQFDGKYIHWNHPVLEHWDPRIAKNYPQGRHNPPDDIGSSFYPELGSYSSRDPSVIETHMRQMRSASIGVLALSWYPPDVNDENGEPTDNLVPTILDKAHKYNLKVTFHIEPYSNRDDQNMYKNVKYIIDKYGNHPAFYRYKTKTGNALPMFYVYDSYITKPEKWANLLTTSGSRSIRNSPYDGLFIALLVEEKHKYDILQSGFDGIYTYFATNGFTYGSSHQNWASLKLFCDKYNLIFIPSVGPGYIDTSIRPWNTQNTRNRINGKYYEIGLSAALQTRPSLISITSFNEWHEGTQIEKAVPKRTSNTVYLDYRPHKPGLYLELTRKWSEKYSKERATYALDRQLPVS
The series is described as follows: isothermal titration calorimetry. It counts as binding. In general terms: ITC needs no label: the signal is the heat of the interaction.

Series [2] has as its target T1, MANEA-Δ97 (human endo-α-1,2-mannosidase catalytic domain, GH99). In words: X-ray crystal structure. It counts as binding. The settings on record: ternary complex with GlcIFG; +1/+2 subsites.
Substrate in the series “purified protein”: CO[C@H]1O[C@H](CO)[C@@H](O)[C@H](O)[C@@H]1O[C@H]1O[C@H](CO)[C@@H](O)[C@H](O)[C@@H]1O[C@H]1O[C@H](CO)[C@@H](O)[C@H](O[C@H]2O[C@H](CO)[C@@H](O)[C@H](O)[C@H]2O)[C@@H]1O
The series is described as follows: purified protein. As to conditions: α-mannosidase-coupled release of mannose.

`OC[C@H]1NC[C@@H](O)[C@@H](O[C@H]2O[C@H](CO)[C@@H](O)[C@H](O)[C@H]2O)[C@@H]1O` [GlcDMJ] had a Kd in series [1] of 1020 nM. For `OC[C@H]1O[C@H](O[C@@H]2C(O)O[C@H](CO)[C@@H](O)[C@@H]2O)[C@@H](O)[C@@H](O)[C@@H]1O` (stereo partly drawn) [α-1,2-mannobiose], the X-ray crystal structure result in series [2] was “a ternary complex with GlcIFG and α-1,2-mannobiose”.

B1: MANEA-Δ97 (human endo-α-1,2-mannosidase catalytic domain, GH99) (Homo sapiens) (protein)
chain: T1 sequence (Q5SRI9 98-462)
Regarding B1, in the series “purified protein”, the Km was 426 ± 33 µM and the kcat came to 0.462 ± 0.0167 s⁻¹.
